ChEMBL document CHEMBL1629601, “In vitro susceptibility of field isolates of Leishmania donovani to Miltefosine and amphotericin B: correlation with sodium antimony gluconate susceptibility and implications for treatment in areas of endemicity” (2009)

What was measured:
Format in all cases: functional
[1] = test system: Leishmania donovani; test: Antimicrobial activity against Leishmania donovani K481 amastigote
[2] = test system: Leishmania donovani; test: Antimicrobial activity against Leishmania donovani LdAG83 amastigote
[3] = test system: Leishmania donovani; test: Antimicrobial activity against Leishmania donovani K80 amastigote
[4] = test system: Leishmania donovani; test: Antimicrobial activity against Leishmania donovani K439 amastigote
[5] = test system: Leishmania donovani; test: Antimicrobial activity against Leishmania donovani K251 amastigote
[6] = test system: Leishmania donovani; test: Antimicrobial activity against Leishmania donovani K516 amastigote
[7] = test system: Leishmania donovani; test: Antimicrobial activity against Leishmania donovani K135 amastigote
[8] = test system: Leishmania donovani; test: Antimicrobial activity against Leishmania donovani K509 amastigote
[9] = test system: Leishmania donovani; test: Antimicrobial activity against Leishmania donovani K111 amastigote
[10] = test system: Leishmania donovani; test: Antimicrobial activity against Leishmania donovani K149 amastigote
[11] = test system: Leishmania donovani; test: Antimicrobial activity against Leishmania donovani K417 amastigote
[12] = test system: Leishmania donovani; test: Antimicrobial activity against Leishmania donovani K132 amastigote
[13] = test system: Leishmania donovani; test: Antimicrobial activity against Leishmania donovani K131 amastigote
[14] = test system: Leishmania donovani; test: Antimicrobial activity against Leishmania donovani K192 amastigote
[15] = test system: Leishmania donovani; test: Antimicrobial activity against Leishmania donovani K216 amastigote
[16] = test system: Leishmania donovani; test: Antimicrobial activity against Leishmania donovani K435 amastigote
[17] = test system: Leishmania donovani; test: Antimicrobial activity against Leishmania donovani K429 amastigote
[18] = test system: Leishmania donovani; test: Antimicrobial activity against Leishmania donovani K498 amastigote
[19] = test system: Leishmania donovani; test: Antimicrobial activity against Leishmania donovani K133 amastigote
[20] = test system: Leishmania donovani; test: Antimicrobial activity against Leishmania donovani K59 amastigote

Substance: D-gluconic acid 2,4:2',4'-O-[oxybis(oxidostibylidyne)]bis-trisodium salt nonahydrate
- ED50 [1]: 17.5 µg/mL
- ED50 [2]: 2.06 µg/mL
- ED50 [3]: 10.4 µg/mL
- ED50 [4]: 12.9 µg/mL
- ED50 [5]: 11.8 µg/mL
- ED50 [6]: 16.5 µg/mL
- ED50 [7]: 4.22 µg/mL
- ED50 [8]: 16.8 µg/mL
- ED50 [9]: 5.63 µg/mL
- ED50 [10]: 15.7 µg/mL
- ED50 [11]: 14.7 µg/mL
- ED50 [12]: 3.95 µg/mL
- ED50 [13]: 19.4 µg/mL
- ED50 [14]: 20.3 µg/mL
- ED50 [15]: 2.14 µg/mL
- ED50 [16]: 11.8 µg/mL
- ED50 [17]: 13.8 µg/mL
- ED50 [18]: 15.8 µg/mL
- ED50 [19]: 3.45 µg/mL
- ED50 [20]: 14.7 µg/mL
